Results reported in patent publication US20220348651A1, “ENTPD2 ANTIBODIES, COMBINATION THERAPIES, AND METHODS OF USING THE ANTIBODIES AND COMBINATION THERAPIES” (Novartis AG, priority 2019, published 2022).

System: human ENTPD2 engineered B16LM3 clone B5
Experiment: Human ENTPD2 engineered B16LM3 clone B5 model, combination with A2AR antagonist NIR178
Format: in vivo
Settings: NIR178 50 or 200 mg/kg p.o. 4 days on, 3 days off, combined with non-specific isotype control
Protocol: Human ENTPD2-engineered B16LM3 clone B5 was established in female C57BL/6 mice by subcutaneous injection of 0.5×10^6 cells into the right flank of each mouse. Once tumors reached approximately 50 mm^3, mice were randomized according to tumor volume into treatment groups (n=8 per group). Mice received an intravenous (i.v.) treatment of either anti-ENTPD2 mAb1 at a final dose of 10/mg/kg or a non-specific human IgG1 isotype control 10 mg/kg on day 1 of study. NIR178 was administered per os (p.o.) for 4 days on and 3 days off, starting at the beginning of study at either 50 mg/kg or 200 mg/kg. All doses were adjusted to individual mouse body weights. The study was carried out for thirteen days post treatment initiation and tumor volumes were assessed every other day to assess efficacy.

With `Nc1nc(-n2cccn2)nc(-n2cccn2)c1Br` [NIR178, 5-bromo-2,6-di-(1H-pyrazol-1-yl)pyrimidine-4-amine, reference compound] the anti-tumor efficacy was “No significant anti-tumor efficacy”.
